Experimental data published in US20040248739A1, “Pyridylpropynyloxyphenyl derivatives for use as herbicides” (priority 2001, published 2004).

Key:
Type in all cases: in vivo
Echinochloa (Ds) = assay: Pre-emergence herbicidal action (Example B1); conditions: 1000 g of active ingredient/ha, after 4 weeks, scale of nine ratings
Experimental: (§1) Monocotyledonous and dicotyledonous test plants are sown in standard soil in pots. Immediately after sowing, the test compounds, in the form of an aqueous suspension (prepared from a wettable powder (Example F3, b) according to WO 97/34485) or in the form of an emulsion (prepared from an emulsifiable concentrate (Example F1, c) according to WO 97/34485), are applied by spraying in an optimum concentration (500 litres of water/ha). The test plants are then grown in a greenhouse under optimum conditions. After a test duration of 4 weeks, the test is evaluated in accordance with a scale of nine ratings (1=total damage, 9=no action). Ratings of from 1 to 4 (especially from 1 to 3) indicate good to very good herbicidal action. Test plants: Panicum, Echinochloa (Ds), Amaranthus, Chenopodium, Stellaria, Veronica.

Panicum = assay: Pre-emergence herbicidal action (Example B1); conditions: 1000 g of active ingredient/ha, after 4 weeks, scale of nine ratings
Experimental: as §1

Amaranthus [1] = assay: Pre-emergence herbicidal action (Example B1); parameters: key: 1=total damage; 9=no action; Ratings of from 1 to 4 (especially from 1 to 3) indicate good to very good herbicidal action; conditions: 1000 g of active ingredient/ha, after 4 weeks, scale of nine ratings
Experimental: as §1

Chenopodium [2] = assay: Pre-emergence herbicidal action (Example B1); parameters: key: 1=total damage; 9=no action; Ratings of from 1 to 4 (especially from 1 to 3) indicate good to very good herbicidal action; conditions: 1000 g of active ingredient/ha, after 4 weeks, scale of nine ratings
Experimental: as §1

Stellaria [3] = assay: Pre-emergence herbicidal action (Example B1); parameters: key: 1=total damage; 9=no action; Ratings of from 1 to 4 (especially from 1 to 3) indicate good to very good herbicidal action; conditions: 1000 g of active ingredient/ha, after 4 weeks, scale of nine ratings
Experimental: as §1

Veronica [4] = assay: Pre-emergence herbicidal action (Example B1); parameters: key: 1=total damage; 9=no action; Ratings of from 1 to 4 (especially from 1 to 3) indicate good to very good herbicidal action; conditions: 1000 g of active ingredient/ha, after 4 weeks, scale of nine ratings
Experimental: as §1

Euphorbia = assay: Post-emergence herbicidal action (Example B2); conditions: post-emergence (2- to 3-leaf stage), 1000 g of active ingredient/ha, after 2 to 3 weeks, scale of nine ratings
Experimental: as §1, with “pots. When the test plants are at the 2- to 3-leaf stage,” for “pots. Immediately after sowing,”, “grown on” for “grown”, “of 2 to 3” for “of 4”, “Panicum, Euphorbia,” for “Panicum, Echinochloa (Ds),”

Stellaria [5] = assay: Post-emergence herbicidal action (Example B2); conditions: post-emergence (2- to 3-leaf stage), 1000 g of active ingredient/ha, after 2 to 3 weeks, scale of nine ratings
Experimental: as §1, with “pots. When the test plants are at the 2- to 3-leaf stage,” for “pots. Immediately after sowing,”, “grown on” for “grown”, “of 2 to 3” for “of 4”, “Panicum, Euphorbia,” for “Panicum, Echinochloa (Ds),”

Veronica [6] = assay: Post-emergence herbicidal action (Example B2); conditions: post-emergence (2- to 3-leaf stage), 1000 g of active ingredient/ha, after 2 to 3 weeks, scale of nine ratings
Experimental: as §1, with “pots. When the test plants are at the 2- to 3-leaf stage,” for “pots. Immediately after sowing,”, “grown on” for “grown”, “of 2 to 3” for “of 4”, “Panicum, Euphorbia,” for “Panicum, Echinochloa (Ds),”

Amaranthus [7] = assay: Post-emergence herbicidal action (Example B2); parameters: key: 1=total damage; 9=no action; Ratings of from 1 to 4 (especially from 1 to 3) indicate good to very good herbicidal action; conditions: post-emergence (2- to 3-leaf stage), 1000 g of active ingredient/ha, after 2 to 3 weeks, scale of nine ratings
Experimental: as §1, with “pots. When the test plants are at the 2- to 3-leaf stage,” for “pots. Immediately after sowing,”, “grown on” for “grown”, “of 2 to 3” for “of 4”, “Panicum, Euphorbia,” for “Panicum, Echinochloa (Ds),”

Chenopodium [8] = assay: Post-emergence herbicidal action (Example B2); parameters: key: 1=total damage; 9=no action; Ratings of from 1 to 4 (especially from 1 to 3) indicate good to very good herbicidal action; conditions: post-emergence (2- to 3-leaf stage), 1000 g of active ingredient/ha, after 2 to 3 weeks, scale of nine ratings
Experimental: as §1, with “pots. When the test plants are at the 2- to 3-leaf stage,” for “pots. Immediately after sowing,”, “grown on” for “grown”, “of 2 to 3” for “of 4”, “Panicum, Euphorbia,” for “Panicum, Echinochloa (Ds),”

Question: How did the “Echinochloa (Ds), herbicidal rating” value (Echinochloa (Ds)) turn out when `COc1cc(F)ccc1OCC#Cc1ccc(Cl)nc1` [1.004, 2-Chloro-5-[3-(4-fluoro-2-methoxy-phenoxy)-prop-1-ynyl]-pyridine] was run?
Answer: Its value is 2.

Question: What about the “Panicum, herbicidal rating” value (Panicum) of the same molecule?
Answer: The value was 2.

Question: What about the “Amaranthus, herbicidal rating” value (Amaranthus [1]) of the same molecule?
Answer: Its value is 1.

Question: And the “Chenopodium, herbicidal rating” value (Chenopodium [2])?
Answer: Its value is 1.

Question: And the “Stellaria, herbicidal rating” value (Stellaria [3])?
Answer: Its value is 1.

Question: And the “Veronica, herbicidal rating” value (Veronica [4])?
Answer: The value was 1.

Question: And the “Euphorbia, herbicidal rating” value (Euphorbia)?
Answer: Its value is 2.

Question: And the “Stellaria, herbicidal rating” value (Stellaria [5])?
Answer: The value was 2.

Question: And the “Veronica, herbicidal rating” value (Veronica [6])?
Answer: Its value is 2.

Question: And the “Amaranthus, herbicidal rating” value (Amaranthus [7])?
Answer: Its value is 1.

Question: What about the “Chenopodium, herbicidal rating” value (Chenopodium [8]) of the same molecule?
Answer: The value was 1.
